Experimental data taken from US20250057979A1, “CARDIAC CALCIUM HANDLING MACHINERY REMODELED IN FRIEDREICH'S ATAXIA” (University of South Florida, priority 2023, published 2025).

How the values were obtained:
[1] = test system: ventricular myocytes from FXN-KO and FXN-WT mice; assay: Oxygen consumption rate (OCR), XFp24 Cell Mito Stress Test (Agilent Seahorse); type: cell-based, mouse; details: isolated ventricular myocytes
Description: To investigate how mitochondrial respiration was affected in FA, OCR was measured herein using XFp24 Cell Mito Stress Test (Catalog #B05423; Agilent Seahorse). One day prior to the experiment, XFp24 cell culture plates were coated with gelatin/fibronectin at 37° C. Ventricular myocytes were enzymatically isolated from FXN-KO and FXN-WT mice. We dissociated myocytes in DMEM medium (Seahorse Bioscience), supplemented with 1 mM pyruvate, 2 mM glutamine, and 10 mM D-glucose. We plated 2500 myocytes/well into 24 well seahorse plates for 10 min. OCR were measured using the Seahorse Bioscience XF24 Extracellular Flux Analyzer (Seahorse Bioscience). Measurements were taken as the cells were incubated sequentially under four conditions: 1) basal levels were measured with no additives; 2) oligomycin (1.5 μM) was added to inhibit ATP synthase and OXPHOS, showing glycolysis alone reversibly; 3) FCCP (1 μM), a mitochondrial uncoupler, was added to induce maximal respiration; and 4) Antimycin A (10 μM), a Complex III inhibitor, was added to obtain non-mitochondrial oxygen consumption background. The Seahorse software was used to extract the results and plotted them using GraphPad Prism. OCR was normalized to cell number per well.

[2] = test system: left ventricular myocytes from FXN-WT and FXN-KO; details: 10 μM FCCP added after 15 min of time-dependent recording over 22 min; FXN-WT and FXN-KO cardiomyocytes
Description: The mitochondrial membrane potential (ΔΨm) was measured using tetramethyl rhodamine methyl ester (TMRM) dye. Left ventricular myocytes from the FXN-WT and FXN-KO were plated in an eight-well confocal chamber (LAB-TEK, DK, Denmark; Catalog #155409,) for 20 minutes, and cells were incubated with TMRM (10 nmol/L; Invitrogen; Catalog #T668) for 20 minutes in Tyrode solution at 37° C. and washed two times with Tyrode solution. After incubation with the dye, live cells were imaged for 20 min in 2 min intervals on a confocal microscope (Olympus-IX) using a 63X-oil objective. […] Confocal settings were identical for FXN-WT and the FXN-KO myocytes.

CC[C@H]1/C=C/C=C/C[C@@H](C)[C@H](O)[C@@](C)(O)C(=O)[C@@H](C)[C@H](O)[C@@H](C)C(=O)[C@@H](C)[C@H](O)[C@@H](C)/C=C/C(=O)O[C@@H]2[C@H](C)[C@H](CC1)O[C@]1(CC[C@H](C)[C@H](C[C@@H](C)O)O1)[C@H]2C [Oligomycin, oligomycin]
OCR after injection of oligomycin ([1]; oligomycin 1.5 μM): decreased

N#CC(C#N)=NNc1ccc(OC(F)(F)F)cc1 [FCCP, carbonyl cyanide 4-(trifluoromethoxy) phenylhydrazone]
OCR after injection of FCCP ([1]; FCCP 1 μM): increased OCR to maximal levels | ΔΨm (TMRM fluorescence) after addition of FCCP [2]: decreased

Antimycin A
OCR after injection of antimycin A ([1]; Antimycin A 10 μM): reduced
